# Data taken from US20250186408A1, “TREATMENT OF PHARMACORESISTANT EPILEPSY” (Katholieke Universiteit Leuven, priority 2021, published 2025).
# Where two headings read alike, the source gives them in different places.
# Legend:
# OPRK1 = OPRK1 (Homo sapiens, UniProt P41145); experiment: cAMP OPRK1 Antagonist; details: for Emax: read-out: Max response
# Procedure: (§1) In vitro pharmacological profiling of compounds was done against 78 functional assays for 47 common off-targets (30) by Eurofins DiscoverX Corporation (Fremont, CA, USA) using their SAFETYscan E/IC50 ELECT service (Cat Ref 87-1003DR, Safety47 Panel Dose Response). […] Compounds were tested in a range of 10 concentrations, following a 3-fold serial dilution, starting from 10 μM. The assays were performed utilizing the PathHunter enzyme fragment complementation (EFC) technology, FLIPR®-based cellular screening assays, and KINOMEscan kinase binding assays.
# (§2) cAMP Hunter cell lines were expanded from freezer stocks. Prior to testing, cells were seeded in a total volume of 20 μL into white walled 384-well microplates and incubated at 37° C. cAMP modulation was determined using the DiscoverX HitHunter cAMP XS+ assay. For Gs agonist determination, cells were incubated with sample to induce response. For Gi agonist determination, cells were incubated with sample in the presence of EC80 forskolin to induce response. For both conditions, media was aspirated from cells and replaced with 15 μL 2:1 HBSS/10 mM HEPES:cAMP XS+ Ab reagent. Intermediate dilution of sample stocks was performed to generate 4× sample in assay buffer (containing 4×EC80 forskolin in the case of antagonist determination). 5 μL of 4× sample was added to cells and incubated at 37° C. or room temperature (RT) for 30 or 60 min. Final assay vehicle concentration was 1%. For antagonist determination, cells were pre-incubated with sample followed by agonist challenge at the EC80 concentration. Media was aspirated from cells and replaced with 10 μL 1:1 HBSS/HEPES:cAMP XS+ Ab reagent. 5 μL of 4× compound was added to the cells and incubated at 37° C. or RT for 30 min. 5 μL of 4×EC80 agonist was added to the cells and incubated at 37° C. or RT for 30 or 60 min. For Gi coupled GPCRs, EC80 forskolin was included. […] Microplates were read following signal generation with a PerkinElmer Envision™ instrument for chemiluminescent signal detection. Compound activity was analyzed using CBIS data analysis suite (ChemInnovation, CA). For Gs agonist mode assays, percentage activity was calculated using the following equation:
# NET = molecular target: T1, NET (Homo sapiens, UniProt P23975); experiment: Transporter NET Blocker; assay type: cell-based; details: for Emax: Transporter NET Blocker, read-out: Max response
# T1 construct: Eurofins DiscoverX Corporation 87-1003DR; host or cells: unnamed cell lines
# Procedure: After cell plating and incubation, media was removed an 25 μL of 1× compound in 1×HBSS/0.1% BSA was added. Compounds were incubated with cells for 30 min at 37° C. After compound incubation, 25 μL of 1× dye loading buffer (1× dye, 1×HBSS/20 mM HEPES) was added to the wells. Cells were incubated for 30-60 min at 37° C. After incubation, microplates were transferred to a PerkinElmer Envision™ instrument for fluorescent signal detection. […] For blocker mode assays, percentage of inhibition was calculated using the following formula: […]
# ADRA2A = molecular target: T2, ADRA2A (Homo sapiens, UniProt P08913); experiment: cAMP ADRA2A Agonist; details: for Emax: read-out: Max response
# T2 sequence (P08913 1-465): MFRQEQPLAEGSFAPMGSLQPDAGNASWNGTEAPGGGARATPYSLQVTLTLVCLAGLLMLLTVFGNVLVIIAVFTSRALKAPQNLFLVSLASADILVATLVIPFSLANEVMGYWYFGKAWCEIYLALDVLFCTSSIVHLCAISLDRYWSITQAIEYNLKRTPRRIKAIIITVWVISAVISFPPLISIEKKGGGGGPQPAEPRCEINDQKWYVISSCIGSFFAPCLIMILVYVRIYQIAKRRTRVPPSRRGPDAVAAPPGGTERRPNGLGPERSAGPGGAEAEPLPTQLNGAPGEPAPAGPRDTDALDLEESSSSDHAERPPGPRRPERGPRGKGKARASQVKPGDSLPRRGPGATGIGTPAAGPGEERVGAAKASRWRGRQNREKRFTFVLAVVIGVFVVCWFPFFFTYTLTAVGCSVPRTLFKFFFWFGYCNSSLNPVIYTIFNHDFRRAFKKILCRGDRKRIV
# Procedure: as §1
# cAMP Hunter cell lines were expanded from freezer stocks. Prior to testing, cells were seeded in a total volume of 20 μL into white walled 384-well microplates and incubated at 37° C. cAMP modulation was determined using the DiscoverX HitHunter cAMP XS+ assay. For Gs agonist determination, cells were incubated with sample to induce response. For Gi agonist determination, cells were incubated with sample in the presence of EC80 forskolin to induce response. For both conditions, media was aspirated from cells and replaced with 15 μL 2:1 HBSS/10 mM HEPES:cAMP XS+ Ab reagent. Intermediate dilution of sample stocks was performed to generate 4× sample in assay buffer (containing 4×EC80 forskolin in the case of antagonist determination). 5 μL of 4× sample was added to cells and incubated at 37° C. or room temperature (RT) for 30 or 60 min. Final assay vehicle concentration was 1%. For antagonist determination, cells were pre-incubated with sample followed by agonist challenge at the EC80 concentration. Media was aspirated from cells and replaced with 10 μL 1:1 HBSS/HEPES:cAMP XS+ Ab reagent. 5 μL of 4× compound was added to the cells and incubated at 37° C. or RT for 30 min. 5 μL of 4×EC80 agonist was added to the cells and incubated at 37° C. or RT for 30 or 60 min. For Gi coupled GPCRs, EC80 forskolin was included. […] Microplates were read following signal generation with a PerkinElmer Envision™ instrument for chemiluminescent signal detection. Compound activity was analyzed using CBIS data analysis suite (ChemInnovation, CA).
# CCKAR = molecular target: T3, CCKAR (Homo sapiens, UniProt P32238); experiment: Calcium Flux CCKAR Agonist; assay type: cell-based; details: for Emax: read-out: Max response; for EC50: read-out: RC50, result type EC50
# T3 sequence (P32238 1-428): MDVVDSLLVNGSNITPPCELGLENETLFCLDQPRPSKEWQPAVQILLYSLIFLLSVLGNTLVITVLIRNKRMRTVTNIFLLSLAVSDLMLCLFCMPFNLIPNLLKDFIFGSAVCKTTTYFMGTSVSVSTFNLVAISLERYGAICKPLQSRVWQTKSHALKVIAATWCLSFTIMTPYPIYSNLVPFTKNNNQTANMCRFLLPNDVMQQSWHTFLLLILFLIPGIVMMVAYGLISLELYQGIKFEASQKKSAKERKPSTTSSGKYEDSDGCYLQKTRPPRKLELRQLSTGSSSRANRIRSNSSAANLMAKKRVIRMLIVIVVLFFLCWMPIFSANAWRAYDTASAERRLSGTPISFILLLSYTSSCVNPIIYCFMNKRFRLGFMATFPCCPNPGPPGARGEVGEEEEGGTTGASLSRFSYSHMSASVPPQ
# Procedure: (≤0.2% DMSO concentration). Assays were performed in 1× dye loading buffer consisting of 1× Dye (DiscoverX, Calcium No Wash^PLUS kit, Catalog No. 90-0091), 1× Additive A and 2.5 mM Probenecid in HBSS/20 mM HEPES. Probenecid was prepared fresh. Prior to testing, media was aspirated from cells and replaced with 25 μL dye loading buffer. Cells were incubated for 45 min at 37° C. and then 20 min at RT. For agonist determination, 25 μL of 2× compound in HBSS/20 mM HEPES was added using a FLIPR Tetra (MDS). […] 25 μL of 2× sample was added and cells were incubated for 30 min at RT in the dark to equilibrate plate temperature. After incubation, antagonist determination was initiated by addition of 25 μL of 1× compound with 3×EC80 agonist using FLIPR. For both agonist and antagonist formats, activity was measure on a FLIPR Tetra (MDS). Calcium mobilization was monitored for 2 min with a 5 sec baseline read.
# FLIPR read—Area under the curve, was calculated for the entire 2 min read.
# OPRM1 = OPRM1 (Homo sapiens, UniProt P35372); experiment: cAMP OPRM1 Agonist; details: for Emax: OPRM1, read-out: Max response
# Procedure: In vitro pharmacological profiling of compounds was done against 78 functional assays for 47 common off-targets (30) by Eurofins DiscoverX Corporation (Fremont, CA, USA) using their SAFETYscan E/IC50 ELECT service (Cat Ref 87-1003DR, Safety47 Panel Dose Response). […] Compounds were tested in a range of 10 concentrations, following a 3-fold serial dilution, starting from 10 μM.
# as §2
# NMDAR (1A/2B) = NMDAR (1A/2B) (Homo sapiens, UniProt Q05586+Q13224); experiment: Ion Channel NMDAR (1A/2B) Opener; assay type: cell-based; details: for Emax: Ion Channel NMDAR (1A/2B) Opener, read-out: Max response
# LCK = molecular target: T4, LCK (Homo sapiens, UniProt P06239); experiment: Binding (KINOMEscan) LCK Inhibitor; details: for Emax: read-out: Max response; for IC50: read-out: RC50, result type IC50
# T4 construct: purchased Eurofins DiscoverX Corporation 87-1003DR; host or cells: E. coli BL21-derived host (T7 phage) or HEK-293
# Procedure: For most assays, kinase-tagged T7 phage strains were grown in parallel in 24-well blocks in an E. coli host derived from the BL21 strain. E. coli were grown to log-phase and infected with T7 phage from a frozen stock (multiplicity of infection=0.4) and incubated with shaking at 32° C. until lysis (90-150 min). The lysates were centrifuged (6,000×g) and filtered (0.2 μm) to remove cell debris. The remaining kinases were produced in HEK-293 cells and subsequently tagged with DNA for qPCR detection. Streptavidin-coated magnetic beads were treated with biotinylated small molecule ligands for 30 min at RT to generate affinity resins for kinase assays. The liganded beads were blocked with excess biotin and washed with blocking buffer (SeaBlock (Pierce), 1% BSA, 0.05% Tween 20, 1 mM DTT) to remove unbound ligand and to reduce non-specific phage binding. […] All reactions were performed in polypropylene 384-well plates in a final volume of 0.02 mL. […] The beads were then re-suspended in elution buffer (1×PBS, 0.05% Tween 20, 0.5 μM non-biotinylated affinity ligand) and incubated at RT with shaking for 30 min. The kinase concentration in the eluates was measured by qPCR.
# The kinase concentration in the eluates was measured by qPCR. qPCR reactions were assembled by adding 2.5 μL of kinase eluate to 7.5 μL of qPCR master mix containing 0.15 μM amplicon primers and 0.15 μM amplicon probe. The qPCR protocol consisted of a 10 min hot start at 95° C., followed by 35 cycles of 95° C. for 15 sec, 60° C. for 1 min.
# Binding constants (Kds) were calculated with a standard dose-response curve using the Hill equation: […]
# T1 sequence (P23975 whole entry): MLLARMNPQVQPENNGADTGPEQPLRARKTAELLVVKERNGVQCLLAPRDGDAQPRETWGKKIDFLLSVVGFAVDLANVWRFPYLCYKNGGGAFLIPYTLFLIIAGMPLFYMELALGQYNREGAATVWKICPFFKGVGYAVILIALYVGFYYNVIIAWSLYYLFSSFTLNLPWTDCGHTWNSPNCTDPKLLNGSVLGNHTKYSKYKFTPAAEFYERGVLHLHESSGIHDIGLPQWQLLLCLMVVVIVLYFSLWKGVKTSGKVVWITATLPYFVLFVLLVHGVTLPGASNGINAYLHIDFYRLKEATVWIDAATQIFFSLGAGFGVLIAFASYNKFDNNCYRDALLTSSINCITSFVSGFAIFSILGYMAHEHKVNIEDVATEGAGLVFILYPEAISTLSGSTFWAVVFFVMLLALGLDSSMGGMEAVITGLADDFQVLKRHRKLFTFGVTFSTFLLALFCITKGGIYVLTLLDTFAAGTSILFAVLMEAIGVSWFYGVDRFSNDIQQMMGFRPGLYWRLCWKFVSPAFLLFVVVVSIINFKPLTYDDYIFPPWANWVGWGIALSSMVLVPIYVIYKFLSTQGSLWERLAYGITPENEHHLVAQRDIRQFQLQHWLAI
# Chain of NMDAR (1A/2B) (Q13224 27-1484, other chains not shown): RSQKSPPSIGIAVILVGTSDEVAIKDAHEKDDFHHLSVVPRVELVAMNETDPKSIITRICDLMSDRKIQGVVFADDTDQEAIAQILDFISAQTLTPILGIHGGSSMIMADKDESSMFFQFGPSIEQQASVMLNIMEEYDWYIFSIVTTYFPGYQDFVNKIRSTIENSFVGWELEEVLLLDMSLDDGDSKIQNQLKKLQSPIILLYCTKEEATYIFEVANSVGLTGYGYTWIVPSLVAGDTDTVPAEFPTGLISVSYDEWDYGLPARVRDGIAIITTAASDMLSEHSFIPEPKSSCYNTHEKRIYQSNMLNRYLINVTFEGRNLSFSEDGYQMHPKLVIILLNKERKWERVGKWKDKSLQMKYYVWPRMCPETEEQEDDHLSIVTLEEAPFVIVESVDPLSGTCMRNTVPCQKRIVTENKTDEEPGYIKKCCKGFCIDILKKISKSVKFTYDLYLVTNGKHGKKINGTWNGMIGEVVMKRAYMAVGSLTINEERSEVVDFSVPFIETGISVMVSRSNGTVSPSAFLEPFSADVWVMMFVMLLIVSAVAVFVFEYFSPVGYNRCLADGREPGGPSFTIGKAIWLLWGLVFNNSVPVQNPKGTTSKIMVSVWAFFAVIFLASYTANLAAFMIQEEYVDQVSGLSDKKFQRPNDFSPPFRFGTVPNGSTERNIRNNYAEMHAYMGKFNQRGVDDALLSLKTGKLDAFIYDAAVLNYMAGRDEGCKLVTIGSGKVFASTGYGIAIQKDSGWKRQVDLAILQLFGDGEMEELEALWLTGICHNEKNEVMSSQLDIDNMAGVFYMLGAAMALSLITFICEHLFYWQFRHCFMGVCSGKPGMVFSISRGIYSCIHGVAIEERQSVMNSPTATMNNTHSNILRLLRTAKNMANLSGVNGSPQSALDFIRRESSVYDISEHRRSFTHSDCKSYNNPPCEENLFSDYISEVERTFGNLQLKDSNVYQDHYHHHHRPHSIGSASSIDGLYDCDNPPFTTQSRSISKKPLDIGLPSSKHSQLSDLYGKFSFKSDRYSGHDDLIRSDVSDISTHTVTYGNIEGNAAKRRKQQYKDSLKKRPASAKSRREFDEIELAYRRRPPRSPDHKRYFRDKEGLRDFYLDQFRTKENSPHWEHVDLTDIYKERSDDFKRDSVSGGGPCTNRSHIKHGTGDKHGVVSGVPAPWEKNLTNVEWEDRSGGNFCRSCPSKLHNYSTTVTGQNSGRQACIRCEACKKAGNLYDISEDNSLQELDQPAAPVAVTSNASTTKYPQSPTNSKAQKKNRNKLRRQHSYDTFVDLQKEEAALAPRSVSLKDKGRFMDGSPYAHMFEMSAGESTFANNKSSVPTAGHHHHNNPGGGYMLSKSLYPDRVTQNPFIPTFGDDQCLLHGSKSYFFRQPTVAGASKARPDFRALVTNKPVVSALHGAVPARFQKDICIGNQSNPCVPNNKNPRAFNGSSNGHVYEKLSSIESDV
# Chain of OPRM1 (P35372 whole entry): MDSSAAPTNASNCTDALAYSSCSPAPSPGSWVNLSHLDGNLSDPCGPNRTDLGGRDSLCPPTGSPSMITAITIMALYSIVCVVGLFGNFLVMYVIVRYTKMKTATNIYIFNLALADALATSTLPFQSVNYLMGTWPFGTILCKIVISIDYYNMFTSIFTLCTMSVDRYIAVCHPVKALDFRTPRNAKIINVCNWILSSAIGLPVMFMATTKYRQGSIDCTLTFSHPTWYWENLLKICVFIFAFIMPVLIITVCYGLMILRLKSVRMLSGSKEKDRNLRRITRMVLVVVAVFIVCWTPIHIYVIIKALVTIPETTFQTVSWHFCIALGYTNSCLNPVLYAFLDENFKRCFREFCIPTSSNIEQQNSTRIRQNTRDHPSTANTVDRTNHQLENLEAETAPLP
# Chain of OPRK1 (P41145 whole entry): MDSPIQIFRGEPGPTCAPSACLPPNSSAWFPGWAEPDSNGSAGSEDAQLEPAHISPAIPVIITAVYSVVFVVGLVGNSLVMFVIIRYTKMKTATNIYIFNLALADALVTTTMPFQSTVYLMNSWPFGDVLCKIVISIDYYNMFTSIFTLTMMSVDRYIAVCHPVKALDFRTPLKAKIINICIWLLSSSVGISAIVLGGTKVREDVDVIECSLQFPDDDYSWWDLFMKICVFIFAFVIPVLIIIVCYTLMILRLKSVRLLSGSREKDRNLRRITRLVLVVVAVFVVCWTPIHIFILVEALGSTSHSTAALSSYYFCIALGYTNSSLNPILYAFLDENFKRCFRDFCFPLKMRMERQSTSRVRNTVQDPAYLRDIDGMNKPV
# T4 sequence (P06239 whole entry): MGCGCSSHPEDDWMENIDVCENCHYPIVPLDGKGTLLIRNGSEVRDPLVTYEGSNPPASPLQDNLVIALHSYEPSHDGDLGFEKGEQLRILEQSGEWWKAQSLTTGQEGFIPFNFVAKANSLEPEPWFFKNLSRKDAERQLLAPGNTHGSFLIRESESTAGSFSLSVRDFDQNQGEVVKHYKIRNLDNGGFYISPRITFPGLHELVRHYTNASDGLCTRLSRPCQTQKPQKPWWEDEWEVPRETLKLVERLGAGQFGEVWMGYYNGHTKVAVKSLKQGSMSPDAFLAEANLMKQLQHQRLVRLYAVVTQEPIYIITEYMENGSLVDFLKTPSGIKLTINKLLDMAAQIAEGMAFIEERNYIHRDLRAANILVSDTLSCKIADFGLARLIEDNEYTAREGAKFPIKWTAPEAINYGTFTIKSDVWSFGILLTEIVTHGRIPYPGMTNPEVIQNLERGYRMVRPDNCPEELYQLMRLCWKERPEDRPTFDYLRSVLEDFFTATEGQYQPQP
Compound,IC50 (OPRK1),Emax (OPRK1),IC50 (NET),Emax (NET),EC50 (ADRA2A),Emax (ADRA2A),Emax (CCKAR; Calcium Flux CCKAR Agonist),EC50 (CCKAR; Calcium Flux CCKAR Agonist),EC50 (OPRM1),Emax (OPRM1),EC50 (NMDAR (1A/2B)),Emax (NMDAR (1A/2B)),Emax (LCK; Binding LCK Inhibitor),IC50 (LCK; Binding LCK Inhibitor),Emax (CCKAR),Emax (LCK)
"Clc1cccc(C#Cc2n[nH]c3ncccc23)c1 [Compound 10.1, 3-((3-chlorophenyl)ethynyl)-1H-pyrazolo[3,4-b]pyridine]",> 10 µM,0%,> 10 µM,13.6%,> 10 µM,20.7%,0.3%,> 10 µM,> 10 µM,9.9%,> 10 µM,0%,0%,> 10 µM,,
"CC(C)(C)c1ccc(C#CC(O)c2ccccc2)cc1 (racemic) [Compound 3.3, rac-3-(4-(tert-butyl)phenyl)-1-phenylprop-2-yn-1-ol]",> 10 µM,8.9%,> 10 µM,0%,> 10 µM,0%,,> 10 µM,> 10 µM,0%,> 10 µM,0%,,> 10 µM,0.2%,0%
